Results reported in patent US9045505B2, “Nitric oxide donors” (University of Otago, priority 2006, dated 2015).

How the values were obtained:
[1] = system: complex I; test: S-nitrosation of bovine heart mitochondrial membranes and complex I; format: biochemical
[2] = system: complex I; conditions: 10 μM
Procedure: (a) Effect of MitoSNAP on mitochondrial respiration. Heart mitochondria (1 mg protein/ml) were incubated in 1 ml KCl medium supplemented with 1 mM phosphate in an oxygen electrode with 5 mM glutamate and 5 mM malate, or succinate, and incubated with 10 μM MitoSNAP, 10 μM MitoNAP or carrier for 2 min (succinate) or 3 min (glutamate/malate), then 250 μM adenosine diphosphate (ADP) was added and the rate of respiration was measured. Respiration in the presence of MitoSNAP is expressed as a percentage of that with MitoNAP, and are means±sem from 3 separate mitochondrial preparations, each determined in triplicate; *p<0.05 by Student's paired t test. […] Bovine heart mitochondrial membranes (0.25 mg protein/ml) were incubated in 1 ml KCl medium in an O2 electrode at 37° C., and incubated with 75 μM MitoSNAP or MitoNAP, or ethanol carrier for 5 min in the presence or absence of rotenone, then 1 mM NADH or 10 mM succinate was added and the rate of respiration was measured. Data are expressed as respiration in the presence of MitoSNAP or MitoNAP as a percentage of the appropriate controls and are means±range of two separate experiments, each determined in triplicate. […] Then protein SNOs were labelled by maleimide-Cy3 and intact mitochondrial respiratory complexes were separated by BN-PAGE which was then scanned for Cy3 fluorescence. […]

[3] = system: mice; test: Cardiac ischemia-reperfusion injury in vivo (LAD occlusion); set-up: species or system mouse; conditions: 100 ng/kg into left ventricle 5 min prior to reperfusion, 30 min LAD occlusion, 24 h recovery
Procedure: Male C57BL/6 mice (˜25 g) were purchased from the Jackson Laboratory and handled in accordance with the procedures of the University of Rochester Committee on Animal Research. All surgical procedures were sterile and performed as described previously. Briefly, analgesics (acetaminophen 0.75 mg/ml in drinking water) were administered 24 hr before, and during the perioperative period.
Following anesthesia (Avertin, 2,2,2-tribromoethanol, […] IP) mice were intubated with a 20 gauge PE catheter which was connected to a rodent ventilator (Harvard MiniVent, 120 cycles/min., 0.3 ml tidal volume). A thoracotomy was performed and the left anterior descending coronary artery (LAD) was then ligated and occluded with a 9-0 proline suture for 30 min. MitoSNAP or MitoNAP (100 ng/kg) were dissolved in 0.9% NaCl saline (final volume 50 μl) and then administered 5 min prior to reperfusion into left ventricle (LV) using 30G½ needle. Reperfusion was initiated by removing the suture. The chest and skin were sutured closed, the endotracheal tube removed and the animal returned to its cage to recover. After 24 hrs. the animal was re-anesthetized, the LAD re-ligated, and Evans' blue dye (1.0% w/v, 1.5 ml) perfused via the LV. […] Slices were scanned and infarct/AR ratios determined with NIH ImageJ software.

[4] = system: liver or heart mitochondria; test: Visualisation of S-nitrosated mitochondrial proteins by Cy3 maleimide labelling; format: biochemical, rat; conditions: 10 μM MitoSNAP or 500 μM diamide, 5 min
Procedure: FIG. 11 is a series of graphs showing S-nitrosation of mitochondrial thiols by MitoSNAP. (a) Time course of S-nitrosation of mitochondrial proteins by MitoSNAP. Liver mitochondria (1 mg protein) were incubated in 1 ml KCl buffer supplemented with rotenone and succinate in the presence of 5 μM MitoSNAP. At various times mitochondria were treated with 10 mM N-ethylmaleimide (NEM), isolated by centrifugation and the S-nitrosothiol content assessed. Data are of a typical experiment showing means±range of duplicate samples for each time point, each measured in duplicate. The experiment was repeated twice. (b) S-nitrosation of mitochondrial proteins by different concentrations of MitoSNAP and SNAP. Aliquots of liver mitochondria were incubated with the indicated concentrations of MitoSNAP or SNAP for […] in the presence or absence of 500 nM FCCP and then assessed for S-nitrosothiol content as in (a). […] Data are of a typical experiment showing means±range of duplicate samples for each time point, each measured in duplicate. […] After further incubation for 5 min at 37° C. in the dark, the medium was removed and the content of S-nitrosated proteins was measured. […] S-nitrosated thiols were then selectively tagged with Cy3 maleimide and protein (10 μg) was then separated on a 12.5% SDS PAGE gel which was stained with coomassie blue and scanned for Cy3 fluorescence. […]

Compound: CC(=O)NC(C(=O)NCCCCC[P+](c1ccccc1)(c1ccccc1)c1ccccc1)C(C)(C)SN=O.CS(=O)(=O)[O-] (stereo not shown) [MitoSNAP, [5-(2-acetylamino-3-methyl-3-nitrosothio-butyrylamino)-penty1]-triphenylphosphonium methanesulfonate]
- S-nitrosation of complex I (BN-PAGE, Cy3) ([1]; 75 μM, 5 min): complex I was S-nitrosated
- formation of protein SNOs ([1]; 75 μM, 5 min, mean±SD, n=4): 4.8±0.9 nmol protein SNOB/mg protein
- decrease of SNO content by GSH treatment ([1]; 1 mM GSH): ~53%
- inhibition of respiration relative to MitoNAP ([2]; glutamate/malate): about 30%
- effect on respiration ([2]; succinate): very little effect
- protection against heart damage (infarct/area at risk) [3]: Protects Against Cardiac Ischemia-Reperfusion Injury
- Cy3 labelling of S-nitrosated proteins [4]: S-nitrosation of a large number of different proteins
